Data on 5 compounds can be found in ChEMBL document CHEMBL3880385, “2-Iminoisoindolinone derivatives as thrombin receptor antagonists” (2011).

Each structure is given as a SMILES string. Counter-ions that a name gives are not always drawn.

A short description of this experiment: Antiproliferative activity against thrombin-induced […] smooth muscle cells isolated from Sprague-Dawley rat aorta after 2 days by MTT assay. The format is functional. The settings on record: VSMC, 48 h.
The compound `CCOc1cc2c(c(F)c1OCC)C(=N)N(CC(=O)c1cc(N3CCN(CC(=O)O)CC3)c(OC)c(C(C)(C)C)c1)C2` had an IC50 of 150 nM. Regarding `CCOc1cc2c(c(F)c1OCC)C(=N)N(CC(=O)c1cc(N3CCNCC3)c(OC)c(C(C)(C)C)c1)C2`, the IC50 is 52 nM. This IC50 lies about 2.9-fold lower than the previous one.

`CCOc1cc2c(c(F)c1OCC)C(=N)N(CC(=O)c1cc(N3CCC(O)CC3)c(OC)c(C(C)(C)C)c1)C2` gave an IC50 of 23 nM. Under `CCOc1cc2c(c(F)c1OCC)C(=N)N(CC(=O)c1cc(N3CCN(CC#N)CC3)c(OC)c(C(C)(C)C)c1)C2` stands 75 nM; under `CCOc1cc2c(c(F)c1OCC)C(=N)N(CC(=O)c1cc(N3CCOCC3)c(OC)c(C(C)(C)C)c1)C2` [ATOPAXAR HYDROBROMIDE], 32 nM.
